Test results published in BindingDB's records for doi:10.1038/sj.npp.1300819 (Case Western Reserve University, 2006).

Key:
[1] = biological target: 5-hydroxytryptamine receptor 2A (Rattus norvegicus, UniProt P14842)
Histamine H1 receptor = Histamine H1 receptor (Homo sapiens, UniProt P35367)
[2] = biological target: 5-hydroxytryptamine receptor 1B (Rattus norvegicus, UniProt P28564)
D(1B) dopamine receptor = D(1B) dopamine receptor (Homo sapiens, UniProt P21918)
[3] = biological target: Sodium-dependent dopamine transporter (Homo sapiens, UniProt Q01959)
[4] = biological target: 5-hydroxytryptamine receptor 2B (Homo sapiens, UniProt P41595)
[5] = biological target: Alpha-1B adrenergic receptor (Homo sapiens, UniProt P35368)
[6] = biological target: 5-hydroxytryptamine receptor 6 (Homo sapiens, UniProt P50406)
[7] = biological target: 5-hydroxytryptamine receptor 1A (Homo sapiens, UniProt P08908)
[8] = biological target: 5-hydroxytryptamine receptor 2C (Rattus norvegicus, UniProt P08909)
[9] = biological target: Sodium-dependent serotonin transporter (Homo sapiens, UniProt P31645)
[10] = biological target: Alpha-1A adrenergic receptor (Homo sapiens, UniProt P35348)
D(4) dopamine receptor = D(4) dopamine receptor (Homo sapiens, UniProt P21917)
D(1A) dopamine receptor = D(1A) dopamine receptor (Homo sapiens, UniProt P21728)
[11] = biological target: Alpha-2A adrenergic receptor (Homo sapiens, UniProt P08913)
[12] = biological target: Alpha-2C adrenergic receptor (Homo sapiens, UniProt P18825)
[13] = biological target: Sodium-dependent noradrenaline transporter (Homo sapiens, UniProt P23975)
D(3) dopamine receptor = D(3) dopamine receptor (Rattus norvegicus, UniProt P19020)
[14] = biological target: Muscarinic acetylcholine receptor M3 (Homo sapiens, UniProt P20309)
[15] = biological target: 5-hydroxytryptamine receptor 5A (Homo sapiens, UniProt P47898)
[16] = biological target: Muscarinic acetylcholine receptor M4 (Homo sapiens, UniProt P08173)
[17] = biological target: Muscarinic acetylcholine receptor M5 (Homo sapiens, UniProt P08912)
[18] = biological target: Muscarinic acetylcholine receptor M1 (Homo sapiens, UniProt P11229)
[19] = biological target: Muscarinic acetylcholine receptor M2 (Homo sapiens, UniProt P08172)

Chain of 5-hydroxytryptamine receptor 6 (P50406 whole entry): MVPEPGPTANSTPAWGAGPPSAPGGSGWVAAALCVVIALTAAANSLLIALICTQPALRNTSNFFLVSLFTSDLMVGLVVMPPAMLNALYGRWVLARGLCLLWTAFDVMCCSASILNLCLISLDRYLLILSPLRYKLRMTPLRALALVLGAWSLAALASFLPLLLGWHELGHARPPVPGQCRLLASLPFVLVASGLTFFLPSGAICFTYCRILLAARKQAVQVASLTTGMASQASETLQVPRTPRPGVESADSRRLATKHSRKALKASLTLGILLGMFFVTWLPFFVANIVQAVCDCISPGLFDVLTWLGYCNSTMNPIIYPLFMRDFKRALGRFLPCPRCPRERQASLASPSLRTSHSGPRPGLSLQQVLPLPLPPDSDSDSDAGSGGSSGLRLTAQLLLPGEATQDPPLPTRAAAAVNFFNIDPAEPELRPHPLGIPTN
Chain of Sodium-dependent noradrenaline transporter (P23975 whole entry): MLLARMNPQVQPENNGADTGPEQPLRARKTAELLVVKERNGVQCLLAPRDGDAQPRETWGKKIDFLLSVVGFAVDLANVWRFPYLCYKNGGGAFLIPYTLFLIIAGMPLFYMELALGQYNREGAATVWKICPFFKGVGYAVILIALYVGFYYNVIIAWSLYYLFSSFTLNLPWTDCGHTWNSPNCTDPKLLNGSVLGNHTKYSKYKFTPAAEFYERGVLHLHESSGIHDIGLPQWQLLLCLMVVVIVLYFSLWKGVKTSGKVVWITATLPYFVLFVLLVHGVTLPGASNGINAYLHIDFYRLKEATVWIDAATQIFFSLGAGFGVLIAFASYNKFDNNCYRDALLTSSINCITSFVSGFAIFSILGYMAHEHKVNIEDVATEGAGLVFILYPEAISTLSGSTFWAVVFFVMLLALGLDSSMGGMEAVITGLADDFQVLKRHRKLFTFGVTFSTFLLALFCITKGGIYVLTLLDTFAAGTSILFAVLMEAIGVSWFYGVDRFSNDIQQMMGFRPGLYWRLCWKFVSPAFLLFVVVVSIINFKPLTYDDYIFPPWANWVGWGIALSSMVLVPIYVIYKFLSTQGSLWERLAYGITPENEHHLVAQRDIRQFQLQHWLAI
Chain of 5-hydroxytryptamine receptor 1A (P08908 whole entry): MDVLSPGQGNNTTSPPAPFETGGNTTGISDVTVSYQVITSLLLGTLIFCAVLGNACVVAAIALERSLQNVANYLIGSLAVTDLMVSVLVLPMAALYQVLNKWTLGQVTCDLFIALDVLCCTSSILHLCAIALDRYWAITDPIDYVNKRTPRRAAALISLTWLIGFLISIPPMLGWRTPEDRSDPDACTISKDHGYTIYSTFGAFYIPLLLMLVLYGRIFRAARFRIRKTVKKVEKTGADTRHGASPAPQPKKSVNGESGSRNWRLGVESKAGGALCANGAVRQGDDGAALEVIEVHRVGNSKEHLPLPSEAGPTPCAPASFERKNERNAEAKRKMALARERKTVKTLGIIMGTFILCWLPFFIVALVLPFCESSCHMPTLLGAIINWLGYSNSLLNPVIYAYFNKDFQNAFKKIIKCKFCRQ
Chain of Alpha-2A adrenergic receptor (P08913 whole entry): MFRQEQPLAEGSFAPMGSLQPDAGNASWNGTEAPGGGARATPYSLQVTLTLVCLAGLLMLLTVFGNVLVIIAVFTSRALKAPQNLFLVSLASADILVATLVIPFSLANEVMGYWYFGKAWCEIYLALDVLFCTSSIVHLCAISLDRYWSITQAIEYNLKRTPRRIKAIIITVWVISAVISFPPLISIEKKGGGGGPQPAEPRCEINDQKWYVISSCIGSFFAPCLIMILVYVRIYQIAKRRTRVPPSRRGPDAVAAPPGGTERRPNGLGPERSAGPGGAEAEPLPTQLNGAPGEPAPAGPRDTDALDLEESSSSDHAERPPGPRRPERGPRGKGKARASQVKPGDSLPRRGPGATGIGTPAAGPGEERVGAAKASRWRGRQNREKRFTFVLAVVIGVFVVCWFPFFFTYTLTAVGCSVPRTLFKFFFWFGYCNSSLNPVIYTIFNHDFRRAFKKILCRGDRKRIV
Chain of 5-hydroxytryptamine receptor 1B (P28564 whole entry): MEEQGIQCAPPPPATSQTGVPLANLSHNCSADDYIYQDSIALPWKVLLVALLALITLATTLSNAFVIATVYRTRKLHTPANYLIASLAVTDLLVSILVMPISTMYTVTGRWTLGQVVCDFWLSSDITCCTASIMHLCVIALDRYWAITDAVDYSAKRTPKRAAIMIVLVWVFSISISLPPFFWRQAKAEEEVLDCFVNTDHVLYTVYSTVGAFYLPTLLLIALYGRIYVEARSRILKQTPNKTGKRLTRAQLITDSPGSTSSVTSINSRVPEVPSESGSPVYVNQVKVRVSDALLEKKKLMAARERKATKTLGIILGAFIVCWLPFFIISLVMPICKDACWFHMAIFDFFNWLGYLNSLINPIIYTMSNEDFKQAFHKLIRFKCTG
Chain of D(1A) dopamine receptor (P21728 whole entry): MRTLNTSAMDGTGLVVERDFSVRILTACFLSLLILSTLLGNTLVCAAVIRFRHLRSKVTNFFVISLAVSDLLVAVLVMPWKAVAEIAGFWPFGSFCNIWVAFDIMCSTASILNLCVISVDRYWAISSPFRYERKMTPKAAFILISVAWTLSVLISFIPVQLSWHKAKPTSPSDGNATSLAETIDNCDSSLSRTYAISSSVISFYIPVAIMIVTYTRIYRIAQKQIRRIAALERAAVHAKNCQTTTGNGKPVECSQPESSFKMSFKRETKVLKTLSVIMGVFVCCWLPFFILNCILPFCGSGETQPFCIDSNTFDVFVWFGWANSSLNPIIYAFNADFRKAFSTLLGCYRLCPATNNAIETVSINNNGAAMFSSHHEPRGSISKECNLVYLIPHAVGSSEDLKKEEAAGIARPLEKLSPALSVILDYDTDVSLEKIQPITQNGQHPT
Chain of 5-hydroxytryptamine receptor 2C (P08909 whole entry): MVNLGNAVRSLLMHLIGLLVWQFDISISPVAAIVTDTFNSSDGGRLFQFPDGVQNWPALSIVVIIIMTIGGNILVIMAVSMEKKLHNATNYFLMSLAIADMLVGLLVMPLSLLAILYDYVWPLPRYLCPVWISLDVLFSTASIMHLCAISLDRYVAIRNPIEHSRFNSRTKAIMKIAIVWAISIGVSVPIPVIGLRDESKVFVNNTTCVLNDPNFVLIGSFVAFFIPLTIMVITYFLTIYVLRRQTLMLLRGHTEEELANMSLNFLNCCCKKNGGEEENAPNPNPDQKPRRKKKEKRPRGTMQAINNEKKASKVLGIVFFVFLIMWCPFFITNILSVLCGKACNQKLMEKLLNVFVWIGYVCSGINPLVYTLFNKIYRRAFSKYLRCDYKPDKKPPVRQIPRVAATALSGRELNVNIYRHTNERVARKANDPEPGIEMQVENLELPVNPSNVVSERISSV
Chain of Sodium-dependent dopamine transporter (Q01959 whole entry): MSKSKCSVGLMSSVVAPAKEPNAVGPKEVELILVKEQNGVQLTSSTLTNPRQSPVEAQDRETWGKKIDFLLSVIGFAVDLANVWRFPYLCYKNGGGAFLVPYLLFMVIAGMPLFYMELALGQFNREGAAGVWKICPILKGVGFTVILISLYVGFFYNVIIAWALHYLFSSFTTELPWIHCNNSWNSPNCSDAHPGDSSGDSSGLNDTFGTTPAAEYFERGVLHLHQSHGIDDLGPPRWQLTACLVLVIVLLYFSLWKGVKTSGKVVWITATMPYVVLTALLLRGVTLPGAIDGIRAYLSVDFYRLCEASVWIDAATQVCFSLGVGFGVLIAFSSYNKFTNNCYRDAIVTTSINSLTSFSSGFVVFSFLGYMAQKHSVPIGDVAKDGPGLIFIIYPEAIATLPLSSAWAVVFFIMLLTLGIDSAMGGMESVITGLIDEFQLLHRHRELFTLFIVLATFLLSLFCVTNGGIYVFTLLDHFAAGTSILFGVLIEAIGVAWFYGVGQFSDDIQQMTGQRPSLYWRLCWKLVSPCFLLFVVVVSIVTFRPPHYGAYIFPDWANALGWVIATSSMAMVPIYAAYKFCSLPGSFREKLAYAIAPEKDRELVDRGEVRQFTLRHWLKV
Chain of Alpha-2C adrenergic receptor (P18825 whole entry): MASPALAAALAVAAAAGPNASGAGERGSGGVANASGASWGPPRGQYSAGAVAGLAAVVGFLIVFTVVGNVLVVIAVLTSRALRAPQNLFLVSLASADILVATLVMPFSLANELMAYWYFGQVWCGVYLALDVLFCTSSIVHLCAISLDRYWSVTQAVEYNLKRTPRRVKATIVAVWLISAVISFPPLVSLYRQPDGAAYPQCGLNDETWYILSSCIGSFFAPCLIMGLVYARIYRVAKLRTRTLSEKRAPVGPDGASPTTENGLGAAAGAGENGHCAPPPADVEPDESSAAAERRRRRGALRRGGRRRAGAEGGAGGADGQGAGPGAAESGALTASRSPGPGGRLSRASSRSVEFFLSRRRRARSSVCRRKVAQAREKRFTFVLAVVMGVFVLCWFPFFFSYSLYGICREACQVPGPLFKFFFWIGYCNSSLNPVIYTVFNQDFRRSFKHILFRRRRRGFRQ
Chain of 5-hydroxytryptamine receptor 2A (P14842 whole entry): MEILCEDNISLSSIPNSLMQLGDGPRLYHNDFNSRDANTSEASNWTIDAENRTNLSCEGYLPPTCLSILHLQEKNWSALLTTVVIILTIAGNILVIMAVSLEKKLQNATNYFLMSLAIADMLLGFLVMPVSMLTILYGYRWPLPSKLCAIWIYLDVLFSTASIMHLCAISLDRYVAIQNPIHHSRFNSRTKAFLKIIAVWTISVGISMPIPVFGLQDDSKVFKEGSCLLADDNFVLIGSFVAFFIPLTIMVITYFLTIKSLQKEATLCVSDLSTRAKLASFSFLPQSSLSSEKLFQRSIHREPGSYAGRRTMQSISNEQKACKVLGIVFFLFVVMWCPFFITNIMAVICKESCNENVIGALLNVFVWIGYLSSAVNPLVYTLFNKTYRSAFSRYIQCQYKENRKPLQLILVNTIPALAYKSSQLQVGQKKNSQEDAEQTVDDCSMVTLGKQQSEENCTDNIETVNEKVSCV

Row | SMILES | Ki [1] [µM] | Ki [2] [µM] | Ki [3] [µM] | Ki [6] [µM] | Ki [7] [µM] | Ki [8] [µM] | Ki (D(1A) dopamine receptor) [µM] | Ki [11] [µM] | Ki [12] [µM] | Ki [13] [µM] | further results
1 | OC(c1ccccc1)C1CCN(CCc2ccccc2)CC1 (centres undefined) [MDL-11939] | 0.00289 | 0.0705 | > 10 | 2.75 | 3.42 | 0.854 | 0.327 | 1.59 | 1.19 | > 10 | Ki (Histamine H1 receptor): 1.6 µM; Ki (D(1B) dopamine receptor): 2.87 µM; Ki [4]: 1.42 µM; Ki [5]: 1.58 µM; Ki [9]: 2.6 µM; Ki [10]: 1.88 µM; Ki (D(4) dopamine receptor): 3.93 µM
2 | CN(C)CCON=C(C=Cc1ccc(O)cc1)c1ccccc1F [NSC_6438382] | 0.000951 | 0.914 | 5.62 | 3.87 | 2.5 | 0.00824 | > 10 | 0.726 | 2.12 | 0.739 | Ki (D(3) dopamine receptor): > 10 µM; Ki [14]: 2.39 µM; Ki [15]: 1.75 µM; Ki [16]: 3.67 µM; Ki [17]: 3.01 µM; Ki [18]: 0.733 µM; Ki [19]: > 10 µM
